Reference: US20260374766A1, “METHODS FOR TREATING CANCER” (Antares Therapeutics, Inc., priority 2022, published 2026)

What was measured:
[1] = target: T1, p53 Y220C mutant protein (amino acid residues 94-293) (Homo sapiens, UniProt P04637, Y220C); test: Surface Plasmon Resonance (SPR) assay, Kd_kinetic; format: binding; conditions: SPR, kinetic KD, p53 Y220C; read-out: SPR P53 Y220C KD kinetic
T1 construct: p53 Y220C mutant protein (amino acid residues 94-293)
Method in brief: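 Biacore 8K SPR; 16 or 20 °C; Tris 50 mM pH 7.5, NaCl 100 mM, DTT 1 mM, Brij35 0.01%, Tween-20 0.05%, DMSO 1%. Kd_kinetic by 1:1 fit.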

[2] = target: T1, p53 Y220C mutant protein (amino acid residues 94-293); test: Thermal Shift Assay (TSA), dTM; format: binding; conditions: thermal shift; for ΔTm at 100 µM: 100 uM compound, read-out: TSA P53 Y220C dTM (100 uM); for ΔTm at 10 µM: 10 uM compound, read-out: TSA P53 Y220C dTM (10 uM)
Method in brief: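 TM is derived by fitting Sypro Orange melt curves (30 °C to 50 °C, 0.03 °C/second) to a Boltzmann two-state model. Beforehand, 5 μM p53 Y220C (94-293) sits with 10 μM or 100 μM compound for 3 hours at 20 °C in HEPES pH7.4 buffer containing 100 mM NaCl and 1% DMSO.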

[3] = target: p53 Y220C (Homo sapiens, UniProt P04637, Y220C); test: Luciferase Reporter Assay (Luc), p53 response element, NClH1299 cells with inducible p53 Y220C; format: cell-based; conditions: luciferase reporter, NClH1299 inducible p53 Y220C, 6 hour; for Emax: 10 uM tool compound as positive control; for AC50: read-out: Luc P53 Y220C AC50
Method in brief: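 Doxycycline (0.5 ug/mL, 24 h) induces the mutant before a 6-hour compound treatment. Reporter activity is then quantified by One-Glo luminescence.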

[4] = tested on: NUGC3 p53 Y220C; test: Cell Proliferation Assay (CellTiter-Glo, CTG), NUGC3 p53 Y220C; format: cell-based; conditions: Homo sapiens, NUGC-3, 120 h, CellTiter-Glo, NUGC3 p53 Y220C, 5 days
Method in brief: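 Tet-One inducible p53 Y220C or R273H constructs were stably introduced into NCI-H1299 by lentiviral transduction; NUGC3 was used as is. Cells (250-500 per well) were exposed to compound for 5 days, then CellTiter-Glo was added for 10 min at room temperature and IC50 was calculated from luminescence.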

[5] = tested on: H1299 p53 Y220C; test: Cell Proliferation Assay (CellTiter-Glo, CTG), H1299 p53 Y220C (NClH1299-inducible p53 Y220C); format: cell-based; conditions: Homo sapiens, NCI-H1299, 120 h, CellTiter-Glo, H1299 p53 Y220C, 5 days
Method in brief: (§1)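 NClH1299 lines stably transduced with Tet-inducible p53 Y220C or R273H, plus NUGC3, were treated with compound for 5 days at 250-500 cells/well. IC50 derived from CellTiter-Glo luminescent signal after 10 min room-temperature incubation.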

[6] = tested on: H1299 p53 R273H; test: Cell Proliferation Assay (CellTiter-Glo, CTG), H1299 p53 R273H (NClH1299-inducible p53 R273H); format: cell-based; conditions: Homo sapiens, NCI-H1299, 120 h, CellTiter-Glo, H1299 p53 R273H, 5 days
Method in brief: as §1

Row | Kd [1] [nM] | ΔTm at 100 µM [2] [°C] | Emax [3] [%] | AC50 [3] [µM] | IC50 [5] [nM] | IC50 [6] [µM] | ΔTm at 10 µM [2] [°C] | Structure (SMILES) | IC50 [4] [nM]
1 | 10 to 100 | ≥ 10 | 70 to 80 | 1.5 to 3 | 750 to 1500 | 5 to 8 |  | COC[C@H](O)CN1CCC(Nc2cccn3c(CC(F)(F)F)c(C#CCNc4ccc(S(C)(=O)=O)cc4OC)nc23)CC1 [Example 14, (2R)-1-{4-[(2-{3-[(4-methanesulfonyl-2-methoxyphenyl)amino]prop-1-yn-1-yl}-3-(2,2,2-trifluoroethyl)imidazo[1,2-a]pyridin-8-yl)amino]piperidin-1-yl}-3-methoxypropan-2-ol] | 750 to 1500
2 | 10 to 100 | 5 to 10 | < 70 | 1.5 to 3 | 1500 to 3000 | 8 to 10 |  | CCc1c(C#CCNc2ccc(S(C)(=O)=O)cc2OC)nc2c(N[C@@H]3CCN(C)C[C@@H]3F)cccn12 [Example 15, (3S,4R)—N-(3-ethyl-2-{3-[(4-methanesulfonyl-2-methoxyphenyl)amino]prop-1-yn-1-yl}imidazo[1,2-a]pyridin-8-yl)-3-fluoro-1-methylpiperidin-4-amine] | 1500 to 3000
3 | 10 to 100 | 5 to 10 | < 70 | > 3 | > 3000 | 5 to 8 |  | CCc1c(C#CCNc2ccc(S(C)(=O)=O)cc2OC)nc2c(NC3CCN(C)CC3)cccn12 [Example 16, N-(3-ethyl-2-{3-[(4-methanesulfonyl-2-methoxyphenyl)amino]prop-1-yn-1-yl}imidazo[1,2-a]pyridin-8-yl)-1-methylpiperidin-4-amine] | > 3000
4 | 100 to 1000 | 1 to 5 | < 70 | > 3 | > 3000 | ≥ 10 |  | CCOc1c(C#CCNc2ccc(C(=O)NC)cc2OC)nc2c(N[C@@H]3CCN(C)C[C@@H]3F)cccn12 [Example 17, 4-{[3-(3-ethoxy-8-{[(3S,4R)-3-fluoro-1-methylpiperidin-4-yl]amino}imidazo[1,2-a]pyridin-2-yl)prop-2-yn-1-yl]amino}-3-methoxy-N-methylbenzamide] | > 3000
5 | 10 to 100 | 5 to 10 | < 70 | > 3 | > 3000 | ≥ 10 |  | CC#Cc1nn2c(N[C@@H]3CCN(C)C[C@@H]3F)cccc2c1CC(F)(F)F [Example 20, (3S,4R)-3-fluoro-1-methyl-N-[2-(prop-1-yn-1-yl)-3-(2,2,2-trifluoroethyl)pyrazolo[1,5-a]pyridin-7-yl]piperidin-4-amine] | > 3000
6 | 100 to 1000 | 5 to 10 | < 70 | > 3 | > 3000 | ≥ 10 |  | CNC(=O)c1ccc(NCC#Cc2nc3c(N[C@@H]4CCN(C)C[C@@H]4F)cccn3c2NC)c(OC)c1 [Example 25, 4-{[3-(8-{[(3S,4R)-3-fluoro-1-methylpiperidin-4-yl]amino}-3-(methylamino)imidazo[1,2-a]pyridin-2-yl)prop-2-yn-1-yl]amino}-3-methoxy-N-methylbenzamide] | > 3000
7 | 100 to 1000 | 5 to 10 | < 70 | > 3 | > 3000 | ≥ 10 |  | CNC(=O)c1ccc(NCC#Cc2nc3c(N[C@@H]4CCN(C)C[C@@H]4F)cccn3c2C2CC2)c(OC)c1 [Example 29, 4-{[3-(3-cyclopropyl-8-{[(3S,4R)-3-fluoro-1-methylpiperidin-4-yl]amino}imidazo[1,2-a]pyridin-2-yl)prop-2-yn-1-yl]amino}-3-methoxy-N-methylbenzamide] | > 3000
8 | < 10 | 1 to 5 | < 70 | > 3 | > 3000 | ≥ 10 | 1 to 5 | COc1cc(S(C)(=O)=O)ccc1NCC#Cc1nc2c(NC3CCN(C)CC3)cc(N)cn2c1CC(F)(F)F [Example 32, 2-{3-[(4-methanesulfonyl-2-methoxyphenyl)amino]prop-1-yn-1-yl}-N8-(1-methylpiperidin-4-yl)-3-(2,2,2-trifluoroethyl) imidazo[1,2-a]pyridine-6,8-diamine] | > 3000
9 | 10 to 100 | 1 to 5 | < 70 | > 3 | > 3000 | ≥ 10 |  | CNc1cc(NC2CCN(C)CC2)c2nc(C#CCNc3ccc(S(C)(=O)=O)cc3OC)c(CC(F)(F)F)n2c1 [Example 33, 2-{3-[(4-methanesulfonyl-2-methoxyphenyl)amino]prop-1-yn-1-yl}-N6-methyl-N8-(1-methylpiperidin-4-yl)-3-(2,2,2-trifluoroethyl) imidazo[1,2-a]pyridine-6,8-diamine] | > 3000
10 | < 10 | 5 to 10 | 70 to 80 | > 3 | 1500 to 3000 | ≥ 10 |  | CNC(=O)c1ccc(NCC#Cc2nc3c(N[C@@H]4CCN(C)C[C@@H]4F)cccn3c2CC(F)(F)F)cc1 [Example 35, 4-{[3-(8-{[(3S,4R)-3-fluoro-1-methylpiperidin-4-yl]amino}-3-(2,2,2-trifluoroethyl)imidazo[1,2-a]pyridin-2-yl)prop-2-yn-1-yl]amino}-N-methylbenzamide] | 1500 to 3000
11 | < 10 | ≥ 10 | 70 to 80 | 0.75 to 1.5 | 750 to 1500 | ≥ 10 | 5 to 10 | CNC(=O)c1ccc(NCC#Cc2nc3c(N[C@@H]4CCN(C)C[C@@H]4F)cccn3c2CC(F)(F)F)c(OC)c1 [Example 36, 4-{[3-(8-{[(3S,4R)-3-fluoro-1-methylpiperidin-4-yl]amino}-3-(2,2,2-trifluoroethyl)imidazo[1,2-a]pyridin-2-yl)prop-2-yn-1-yl]amino}3-methoxy-N-methylbenzamide] | 750 to 1500
12 | > 1000 | 1 to 5 | < 70 | > 3 | > 3000 | 5 to 8 |  | CNC(=O)c1ccc(NCC#Cc2nc3c(NC4CCN(C)CC4)cc(NC(=O)OC(C)(C)C)cn3c2CC(F)(F)F)c(OC)c1 [Example 39, tert-butyl N-[2-(3-{[2-methoxy-4-(methylcarbamoyl)phenyl]amino}prop-1-yn-1-yl)-8-[(1-methylpiperidin-4-yl)amino]-3-(2,2,2-trifluoroethyl)imidazo[1,2-a]pyridin-6-yl]carbamate] | 1500 to 3000
13 | 10 to 100 | 5 to 10 | < 70 | > 3 | > 3000 | ≥ 10 |  | CNC(=O)c1ccc(NCC#Cc2nc3c(NC4CCN(C)CC4)cc(N)cn3c2CC(F)(F)F)c(OC)c1 [Example 40, 4-[(3-{6-amino-8-[(1-methylpiperidin-4-yl)amino]-3-(2,2,2-trifluoroethyl)imidazo[1,2-a]pyridin-2-yl}prop-2-yn-1-yl)amino]-3-methoxy-N-methylbenzamide] | > 3000
14 | 100 to 1000 | 1 to 5 | < 70 | > 3 | > 3000 | ≥ 10 |  | CNC(=O)Nc1cc(NC2CCN(C)CC2)c2nc(C#CCNc3ccc(C(=O)NC)cc3OC)c(CC(F)(F)F)n2c1 [Example 44, 3-methoxy-N-methyl-4-[(3-{6-[(methylcarbamoyl)amino]-8-[(1-methylpiperidin-4-yl)amino]-3-(2,2,2-trifluoroethyl)imidazo[1,2-a]pyridin-2-yl}prop-2-yn-1-yl)amino]benzamide] | > 3000
15 | < 10 | ≥ 10 | 70 to 80 | 1.5 to 3 | 750 to 1500 | ≥ 10 |  | COc1cc(C(=O)N(C)C)ccc1NCC#Cc1nc2c(N[C@@H]3CCN(C)C[C@@H]3F)cccn2c1CC(F)(F)F [Example 46, 4-{[3-(8-{[(3S,4R)-3-fluoro-1-methylpiperidin-4-yl]amino}-3-(2,2,2-trifluoroethyl)imidazo[1,2-a]pyridin-2-yl)prop-2-yn-1-yl]amino}-3-methoxy-N,N-dimethylbenzamide] | 1500 to 3000
